Laboratory results reported in patent US9643951B2, “Compound having somatostatin receptor agonistic activity and pharmaceutical use thereof” (ONO PHARMACEUTICAL CO., LTD., priority 2013, dated 2017).

Experiments:
[1] = biological target: somatostatin receptor subtype 2 (SSTR2) (Homo sapiens, UniProt P30874); settings: reported; cited from earlier work
[2] = biological target: somatostatin receptor subtype 4 (SSTR4) (Homo sapiens, UniProt P31391); settings: reported; cited from earlier work
[3] = biological target: somatostatin receptor subtype 3 (SSTR3) (Homo sapiens, UniProt P32745); settings: reported; cited from earlier work
Chain of somatostatin receptor subtype 3 (SSTR3) (P32745 whole entry, species assumed): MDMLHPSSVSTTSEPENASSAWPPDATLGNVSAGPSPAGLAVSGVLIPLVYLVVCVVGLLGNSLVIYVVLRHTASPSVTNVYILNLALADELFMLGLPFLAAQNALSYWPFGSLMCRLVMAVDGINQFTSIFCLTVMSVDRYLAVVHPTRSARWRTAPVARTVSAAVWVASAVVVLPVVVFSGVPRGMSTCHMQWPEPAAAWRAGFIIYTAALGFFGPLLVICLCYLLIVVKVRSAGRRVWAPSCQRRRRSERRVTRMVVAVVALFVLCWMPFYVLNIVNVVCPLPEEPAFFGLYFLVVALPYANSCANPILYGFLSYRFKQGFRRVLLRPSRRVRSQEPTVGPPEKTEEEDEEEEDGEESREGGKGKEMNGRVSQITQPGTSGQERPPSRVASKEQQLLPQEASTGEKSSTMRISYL

[4] = biological target: somatostatin receptor subtype 1 (SSTR1) (Homo sapiens, UniProt P30872); settings: reported; cited from earlier work
Chain of somatostatin receptor subtype 1 (SSTR1) (P30872 whole entry, species assumed): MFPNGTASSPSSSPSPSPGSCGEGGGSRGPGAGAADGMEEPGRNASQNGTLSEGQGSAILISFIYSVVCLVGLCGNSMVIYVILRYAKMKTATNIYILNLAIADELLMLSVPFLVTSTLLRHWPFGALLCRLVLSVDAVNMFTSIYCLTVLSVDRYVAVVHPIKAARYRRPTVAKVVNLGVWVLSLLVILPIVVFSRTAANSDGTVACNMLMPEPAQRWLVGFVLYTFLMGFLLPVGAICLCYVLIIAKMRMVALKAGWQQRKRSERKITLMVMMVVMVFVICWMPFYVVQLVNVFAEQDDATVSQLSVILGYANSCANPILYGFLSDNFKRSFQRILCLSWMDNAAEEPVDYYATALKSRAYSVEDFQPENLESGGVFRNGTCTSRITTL

[5] = tested on: growth hormone (GH) secretion; experiment: Evaluation of suppression of growth hormone (GH) secretion using rats (GHRH-induced); type: in vivo; settings: for inhibition in vivo at 1 mg/kg: Rattus norvegicus, Procedure (B): oral administration 8 hours beforehand, read-out: percentage of suppression of GH secretion
Experimental: Evaluation of Suppression of Growth Hormone (GH) Secretion Using Rats
[Procedure (A): Administration of a Test Compound 30 Minutes Beforehand]
A medium (distilled water (Otsuka distilled water, Otsuka Pharmaceutical Factory, […]) IGS rats (Charles River Laboratories Japan, Inc.)) and after 27 minutes, the animals were administered with 50 mg/kg of pentobarbital sodium (Somnopentyl, Kyoritsu Seiyaku Corporation) via the tail vein for anaesthesia. Three minutes after administration of pentobarbital sodium, the rats were administered with 0.01 mg/kg of growth hormone-releasing hormone (GHRH, Bachem) via the tail vein to induce GH secretion. In order to measure the blood GH concentration, 0.2 mL of blood was collected through the jugular vein at 5 minutes after administration of GHRH. The collected blood was centrifuged at 4° C., 13,000×g for 5 minutes to obtain plasma. The blood GH concentration was measured by using Rat/Mouse Growth Hormone ELISA (Millipore) following the instruction of the kit. The percentage (%) of suppression of GH secretion was determined by using the obtained blood GH concentration and the equation {[suppression (%) of GH secretion]=([blood GH concentration of the group administered with the medium]−[blood GH concentration of the group administered with a test compound])/[blood GH concentration of the group administered with the medium]×100}. In the equation, the group administered with the medium represents the group of animals administered with the medium and the group administered with a test compound represents the group of animals administered with a test compound dissolved in the medium.
[Procedure (B): Administration of a Test Compound 8 Hours Beforehand]
A medium (distilled water (Otsuka distilled water, Otsuka Pharmaceutical Factory, […]) IGS rats (Charles River Laboratories Japan, Inc.)) and after 7 hours and 57 minutes, the animals were administered with 50 mg/kg of pentobarbital sodium (Somnopentyl, Kyoritsu Seiyaku Corporation) via the tail vein for anaesthesia. Three minutes after administration of pentobarbital sodium, the rats were administered with 0.01 mg/kg of growth hormone-releasing hormone (GHRH, Bachem) via the tail vein to induce GH secretion. The rest of the procedure is the same as in [Procedure (A)] described above.

gastric acid secretion = experiment: Evaluation of suppression of gastric acid secretion using rats (pyloric ligation); type: in vivo; settings: continuous intravenous administration at 1 mcg (microgram)/kg/h
human SSTR2 = biological target: T1, human SSTR2 (Homo sapiens, UniProt P30874); experiment: Evaluation of SSTR2 agonistic activity using cells expressing human SSTR2 (suppression of forskolin-stimulated cAMP production, SSTR2-CHO-K1); type: cell-based
T1 construct: Myc; expressed in transfected cells
T1 sequence (P30874 whole entry): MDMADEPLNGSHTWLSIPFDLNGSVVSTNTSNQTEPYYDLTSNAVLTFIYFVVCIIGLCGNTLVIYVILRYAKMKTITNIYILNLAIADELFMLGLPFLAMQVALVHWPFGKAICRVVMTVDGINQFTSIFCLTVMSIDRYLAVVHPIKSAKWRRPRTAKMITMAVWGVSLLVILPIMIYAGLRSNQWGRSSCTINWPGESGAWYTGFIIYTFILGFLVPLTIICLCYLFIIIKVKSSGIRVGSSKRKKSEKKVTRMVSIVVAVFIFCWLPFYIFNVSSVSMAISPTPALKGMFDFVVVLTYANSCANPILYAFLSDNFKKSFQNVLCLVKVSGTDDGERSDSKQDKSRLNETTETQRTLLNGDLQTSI
Experimental: Evaluation of SSTR2 Agonistic Activity Using Cells Expressing Human SSTR2
(1) Isolation of Human SSTR2 Gene
Human brain cDNA was purchased from Ambion (catalogue No.: 7962; Lot No.: 040200121). PCR primers, hSSTR2_F1_XhoI: 5′-[…]-3′ (SEQ ID NO: 1) and hSSTR2_R1_EcoRI: 5′-[…]-3′ (SEQ ID NO: 2) were designed on the basis of the sequence GenBank NM_001050.
PCR reaction (95° C. for 2 min.→[98° C. for 10 sec., 60° C. for 30 sec. and 68° C. for 90 sec.]×30 cycles) was carried out using the human brain cDNA as a template and using KOD-plus-(TOYOBO Co., Ltd.). The amplified PCR product was subjected to 1% agarose gel electrophoresis, purified using QIAquick Gel Extraction Kit (QIAGEN) and digested with restriction enzymes XhoI and EcoRI. The digested fragments were ligated to an expression vector (pIRESneo-Myc) using the DNA Ligation Kit Ver. 2 (Takara) and used for transformation of E. coli DH5a. The plasmid pIRESneo-Myc/hSSTR2 was prepared and the DNA sequence thereof was confirmed.
(2) Culture of CHO-K1 Cells
CHO-K1 (−) was cultured in Ham's F-12 medium (containing foetal bovine serum (10%), penicillin (100 U/mL) and streptomycin (0.1 mg/mL)). The transduced cells were cultured in the same medium supplemented with Geneticin (1 mg/mL).
(3) Transduction of CHO-K1 Cells
CHO-K1(−) cells were transduced with the plasmid pIRESneo-Myc/hSSTR2 using Lipofectamine 2000 (Invitrogen). After 48 hours, selection was carried out by replacing the medium with the one containing 1 mg/mL of Geneticin to establish a stable overexpressing cell line (SSTR2-CHO-K1).
(4) Evaluation of SSTR2 Agonistic Activity
The human SSTR2 agonistic activity of a test compound was evaluated according to the following procedures by using a suppression activity of intracellular cyclic AMP (cAMP) production by forskolin stimulation as an index. SSTR2-CHO-K1 cells suspended in Ham's F-12 medium (containing foetal bovine serum (10%), penicillin (100 U/mL) and streptomycin (0.1 mg/mL)) supplemented with 0.25 mg/mL of Geneticin were inoculated into a 96-well plate at a density of 4.0×10^4 cells/0.1 mL per well. On the next day, the medium was removed and washed twice with 0.1 mL of wash buffer [0.1% bovine serum albumin (BSA), 20 mmol/L 4-(2-hydroxyethyl)-1-piperazineethane sulphonic acid (HEPES)-containing Hank's balanced salt solution (HBSS)]. An assay buffer [[…] 3-isobutyl-1-methylxanthine (IBMX), 0.1% BSA, 20 mmol/L HEPES-containing HBSS] was added to the wells at 0.06 mL per well and the plate was incubated for 15 minutes under the conditions of 5% carbon dioxide and 37° C. Thereafter, an assay buffer containing a test compound at a concentration twice as high as the final concentration and 0.02 mmol/L of forskolin was added to wells at 0.06 mL per well and the plate was incubated for 30 minutes under the conditions of 5% carbon dioxide and 37° C. Thereafter, the Assay/Lysis buffer included in the cAMP-Screen® kit (available from Applied Biosystems) was added to wells at 0.12 mL per well and the plate was incubated for 30 minutes under the conditions of 5% carbon dioxide and 37° C. The concentration of cAMP in samples were measured by ELISA according to the instruction of the kit.

[6] = Evaluation of cytotoxicity using cultured human hepatocytes (intracellular ATP); type: cell-based; settings: read-out: IC50 of cytotoxicity (concentration at which 50% of the luminescence is suppressed)
Experimental: Evaluation of Cytotoxicity Using Cultured Human Hepatocytes
Frozen adhesive human hepatocytes were thawed, suspended in a hepatocellular medium (HCM) purchased from Lonza and inoculated to a 96-well plate coated with collagen. The culture medium of the hepatocytes cultured overnight in an incubator (5% carbon dioxide, 95% air, 37° C.) was exchanged to the medium containing a test compound at a concentration of 0, 12.5, 25, 50, 100, 200 or 400 (×10^−6 mol/L) and the cells were further cultured for 24 hours. Cytotoxicity was evaluated by measuring the intracellular ATP concentration. Specifically, using the Promega Celltiter-Glo luminescent assay kit available from Promega, cells were lysed in the assay buffer included in the kit and the concentration of ATP released from the cells was measured according to the luminescence resulting from luciferin-luciferase enzyme activity. The luminescence was measured on the SpectraMax plate reader from Molecular Devices. The extent of cytotoxicity of a test compound is represented by the concentration (IC50) of the compound at which 50% of the luminescence is suppressed.

[7] = Human hepatic microsome stability test; type: in vitro ADME; settings: human hepatic microsomes 1 mg/mL; 60 minutes; test compound 0.001 mmol/L; 37° C.
Experimental: Human Hepatic Microsome Stability Test
To a reaction vessel heated to 37° C. in a water bath, 0.392 mL of phosphate buffer (0.1 mol/L, pH 7.4) containing human hepatic microsomes (1 mg/mL, Xenotech) and NADPH-Co-factor (NADP+1.3 mmol/L, BD-Bioscience) was added and pre-incubated for 5 minutes. A 50% acetonitrile solution (0.008 mL) containing 0.05 mmol/L of a test compound was added thereto to initiate the enzyme reaction (final concentration of the test compound: 0.001 mmol/L). Immediately after initiation of the reaction and at 60 minutes thereafter, 0.050 mL of the reaction solution was respectively collected, which was immediately added to an acetonitrile solution (0.2 mL) containing an internal standard (45 nmol/L, 1-[3-(3,5-dimethylphenyl)-4-quinolinyl]-4-piperidineamine) to terminate the enzyme reaction.
The residual rate (%), which is indicative of stability of the test compound, was calculated using the ratio of peak areas between the test compound and the internal substance determined by LC/MS/MS (TSQ Quantum Discovery MAX, Thermo) analysis of the sample thus prepared by the above procedures followed by filtration, and the equation: {[residual rate (%)=[peak area of a test compound in a sample at 60 minutes after initiation of the reaction/peak area of the internal standard]/[peak area of the test compound in the sample immediately after initiation of the reaction/peak area of the internal standard]×100}.

Chain of somatostatin receptor subtype 4 (SSTR4) (P31391 whole entry, species assumed): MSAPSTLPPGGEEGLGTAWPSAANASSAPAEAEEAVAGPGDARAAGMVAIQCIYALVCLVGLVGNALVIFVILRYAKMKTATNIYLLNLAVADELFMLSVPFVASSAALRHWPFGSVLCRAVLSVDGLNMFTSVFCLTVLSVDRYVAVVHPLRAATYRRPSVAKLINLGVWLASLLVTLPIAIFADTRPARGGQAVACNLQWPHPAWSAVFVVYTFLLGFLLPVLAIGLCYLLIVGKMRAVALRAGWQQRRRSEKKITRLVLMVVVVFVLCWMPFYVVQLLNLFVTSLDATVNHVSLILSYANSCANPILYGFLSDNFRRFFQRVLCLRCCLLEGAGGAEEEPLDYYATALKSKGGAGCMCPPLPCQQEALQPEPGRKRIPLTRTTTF
Chain of somatostatin receptor subtype 2 (SSTR2) (P30874 whole entry, species assumed): as the sequence (P30874 whole entry) above

Compound	binding affinity to SSTR2 [1]	binding to SSTR4 [2]	binding affinity to SSTR3 [3]	binding to SSTR1 [4]	suppression of GH secretion ([5]; Procedure (A): 30 minutes beforehand, 0.003 mg/kg by subcutaneous administration) [%]	percentage of suppression of gastric acid secretion (gastric acid secretion) [%]	inhibition in vivo at 1 mg/kg [5] [%]	EC50 (human SSTR2) [nM]	IC50 at 24 h [6] [µM]	residual rate [7] [%]
CC(C)[C@@H]1NC(=O)[C@H](CCCCN)NC(=O)[C@@H](Cc2c[nH]c3ccccc23)NC(=O)[C@H](Cc2ccc(O)cc2)NC(=O)[C@@H](NC(=O)[C@H](N)Cc2ccc3ccccc3c2)CSSC[C@@H](C(=O)N[C@H](C(N)=O)[C@@H](C)O)NC1=O [lanreotide acetate]	high affinity	do not bind	moderate affinity	do not bind						
C[C@@H](O)[C@@H]1NC(=O)[C@H](CCCCN)NC(=O)[C@@H](Cc2c[nH]c3ccccc23)NC(=O)[C@H](Cc2ccccc2)NC(=O)[C@@H](NC(=O)[C@H](N)Cc2ccccc2)CSSC[C@@H](C(=O)N[C@H](CO)[C@@H](C)O)NC1=O [octreotide, reference compound]					98	39				
NC1CCN(c2c(-c3ccc(OC(F)F)cc3)cncc2-c2cc(F)cc(Cl)c2)CC1 [Example 2(1), 1-{3-(3-chloro-5-fluorophenyl)-5-[4-(difluoromethoxy)phenyl]-4-pyridinyl}-4-piperidineamine]							91	0.041	19	100.0
CC(C)(C#N)c1ccc(-c2cncc(-c3cc(Cl)cc(Cl)c3)c2N2CCC(N)CC2)cc1 [Example 2(4), 2-{4-[4-(4-amino-1-piperidinyl)-5-(3,5-dichlorophenyl)-3-pyridinyl]phenyl}-2-methylpropanenitrile]							88	0.024	13	94.0
